Experimental data from patent US20260130885A1, “ANTIMICROBIAL COMPOSITIONS, PHARMACEUTICAL COMPOSITIONS AND USE THEREOF” (priority 2022, published 2026).
≈ marks a conversion by molar mass, not a printed value. Where two headings read alike, the source gives them in different places.

Legend:
MRSA ATCC43300 = assay: Antibacterial activity assay (MIC, broth microdilution); format: cell-based, Staphylococcus aureus; conditions: for MIC: Staphylococcus aureus; for combination effect: MIC
MRSA SCCmec VT = assay: as above; format: cell-based, Staphylococcus aureus; conditions: for MIC: Staphylococcus aureus, MRSA; for combination effect: MIC
S. aureus NCTC8325 = assay: as above; format: cell-based, Staphylococcus aureus; conditions: for MIC: Staphylococcus aureus; for combination effect: MIC, +8 mg/L DHA
S. aureus DAP-NS = assay: as above; format: cell-based, Staphylococcus aureus; conditions: for MIC: Staphylococcus aureus; for combination effect: MIC
MRSA ATCC49476 = assay: as above; format: cell-based, Staphylococcus aureus; conditions: for MIC: Staphylococcus aureus; for combination effect: MIC
MRSA ATCC33591 = assay: as above; format: cell-based, Staphylococcus aureus; conditions: for MIC: Staphylococcus aureus; for combination effect: MIC
MRSA USA300 = assay: Antibacterial activity assay (MIC by broth microdilution, MBC by subculture); format: cell-based, Staphylococcus aureus; conditions: for combination effect: MIC
Protocol: (§1) The antimicrobial activity was based on MIC and MBC; MIC is the minimum inhibitory concentration and MBC is the minimum bactericidal concentration. The MIC of individual test agents against MRSA USA300 strains was determined using the broth microdilution method according to CLSI guidelines. Briefly, overnight bacterial cultures in LB medium were diluted 1:50 in fresh LB medium and incubated at 37° C. until reaching an OD600 of 0.5 to 0.6. Bacterial suspensions were diluted to a final concentration of 5×10^5 cfu/mL in fresh CAMHB and then exposed to each test agent at increasing doses in triplicate in 96-well plates for 24 hours at 37° C. The MIC of each agent was defined as the lowest concentration without visible bacterial growth. […] The lowest broth dilution that had no viable bacteria was considered the MBC.
(§2) Then, the combination effect was measured by calculating their corresponding fractional inhibitory concentration index (FICI) with the equation ΣFIC (FICi)=FICA+FICB=(CombA/MICA)+(CombB/MICB), where MICA and MICB are the MICs of drugs A and B alone, respectively, and CombA and CombB are the concentrations of drugs A and B in combination, respectively. Combination effect was defined as an FICI≤0.5, no interaction was defined as an FICI>0.5-4.0, and antagonism was defined as an FICI>4.

S. aureus ATCC29213 = assay: Antibacterial activity assay (MIC, broth microdilution); format: cell-based, Staphylococcus aureus; conditions: for MIC: Staphylococcus aureus; for combination effect: MIC, +8 mg/L DHA
MRSA ATCC33592 = assay: as above; format: cell-based, Staphylococcus aureus; conditions: for MIC: Staphylococcus aureus; for combination effect: MIC
[1] = test system: antibiotic-resistant Staphylococcus aureus; assay: MIC against all strains of Table 4; format: cell-based; conditions: agent alone, all the bacterial strains under the examination
Protocol: as §1
as §2, with “Combination effect was defined as an FICI≤0.5, no interaction was defined as an FICI>0.5-4.0, and antagonism was defined as an FICI>4.” left out
The antibacterial activity of the SC5005-DHA composition against a series of antibiotic-resistant Staphylococcus aureus was analyzed, and the results are shown in Table 4.

VRSA SJC1200 = assay: Antibacterial activity assay (MIC, broth microdilution); format: cell-based, Staphylococcus aureus; conditions: for MIC: Staphylococcus aureus, VRSA; for combination effect: MIC
[2] = test system: S. aureus NCTC8325 persister cells; assay: Persister killing assay; format: cell-based, Staphylococcus aureus; conditions: 16×MIC, 16 mg/L; FIG. 1
Protocol: (§3) The number of viable bacteria in broth after each exposure period was enumerated by a cfu assay and expressed as cfu/mL; the data shown are the mean±SD (standard deviation) of independent experiments. […] The number of viable bacteria in the broth after each exposure period was calculated by a cfu assay (cfu/mL); the data are shown as the mean±SD of three independent experiments (n=3 for each group). Since the standard deviation of each point is very small, the error line is not shown in each graph. The horizontal dashed line in the upper left graph and the upper right graph represents […] of the bacterial cells killed. In addition, the blank controls in FIG. 1 are shown as filled diamonds.
(§4) Bacteria were collected by centrifugation at 4000×g for 10 min at 4° C., washed with ice-cold PBS, and suspended in PBS with test agents. Controls received DMSO and ethanol vehicles at concentrations equal to those for drug-treated bacteria. At the designated times, the number of viable bacteria was assessed by serial dilution of a 100 μL aliquot bacterial suspension in PBS and then spread onto LB agar plates. After incubation at 37° C. for 18-24 hours, the number of colonies was counted and expressed as cfu/mL.

[3] = test system: MRSA USA300 persister cells; assay: Persister killing assay; format: cell-based, Staphylococcus aureus; conditions: 16×MIC, 16 mg/L; FIG. 1
Protocol: as §3, §4

[4] = Staphylococcus aureus, fatty acid alone, read-out: MBC fatty acid
[5] = Staphylococcus aureus, fatty acid alone, read-out: MIC fatty acid
[6] = +8 mg/L DHA, MRSA USA300 (Table 4)
[7] = Staphylococcus aureus, amide compound alone, read-out: MBC
[8] = Staphylococcus aureus, amide compound alone, read-out: MIC
[9] = agent alone, MRSA USA300 (Table 4)

MIC (MRSA ATCC43300; agent alone) [µg/mL]	MIC (MRSA SCCmec VT; agent alone) [µg/mL]	MIC (S. aureus NCTC8325; NCTC8325, agent alone) [µg/mL]	MIC (S. aureus DAP-NS; agent alone) [µg/mL]	MIC (MRSA ATCC49476; agent alone) [µg/mL]	MIC (MRSA ATCC33591; agent alone) [µg/mL]	MIC (MRSA USA300; [5]) [µg/mL]	MIC (S. aureus ATCC29213; ATCC29213, agent alone) [µg/mL]	MIC (MRSA ATCC33592; agent alone) [µg/mL]	MIC (VRSA SJC1200; agent alone) [µg/mL]	MIC (MRSA ATCC43300; +8 mg/L DHA) [µg/mL]	MIC (MRSA SCCmec VT; +8 mg/L DHA) [µg/mL]	MIC (S. aureus NCTC8325; NCTC8325, +8 mg/L DHA) [µg/mL]	MIC (S. aureus DAP-NS; +8 mg/L DHA) [µg/mL]	SMILES	MBC (MRSA USA300; [4]) [µg/mL]	combination effect (MRSA ATCC43300; +8 mg/L DHA)	combination effect (MRSA SCCmec VT; +8 mg/L DHA)	combination effect (S. aureus NCTC8325)	combination effect (S. aureus DAP-NS; +8 mg/L DHA)	combination effect (MRSA ATCC49476; +8 mg/L DHA)	further results
1020 (≈ 3120 µM)	1020 (≈ 3120 µM)	1020 (≈ 3120 µM)	1020 (≈ 3120 µM)	1020 (≈ 3120 µM)	1020 (≈ 3120 µM)	1020	1020 (≈ 3120 µM)	1020 (≈ 3120 µM)	1020 (≈ 3120 µM)	–	–	–	–	CC/C=C\C/C=C\C/C=C\C/C=C\C/C=C\C/C=C\CCC(=O)O [DHA, docosahexaenoic acid]	1020	–	–	–	–	–	MIC (MRSA USA300; Staphylococcus aureus, agent alone, MRSA USA300 (Table 4), read-out: MIC): 1020 µg/mL; MIC [1]: 1020 µg/mL
0.0625 (≈ 0.158 µM)	0.125 (≈ 0.317 µM)	0.0625 (≈ 0.158 µM)	0.0625 (≈ 0.158 µM)	0.0625 (≈ 0.158 µM)	0.0625 (≈ 0.158 µM)	–	0.0625 (≈ 0.158 µM)	0.0625 (≈ 0.158 µM)	0.125 (≈ 0.317 µM)	0.00098 (≈ 0.00248 µM)	0.00098 (≈ 0.00248 µM)	3.5e-05 (≈ 8.87e-05 µM)	0.0156 (≈ 0.0395 µM)	O=C(Nc1ccc2c(c1)OC(F)(F)O2)Nc1ccc(Cl)c(C(F)(F)F)c1 [PK150]	–	(Syn) (Synergy (Syn) was defined as an FICI≤0.5)	(Syn) (Synergy (Syn) was defined as an FICI≤0.5)	(Syn) (Synergy (Syn) was defined as an FICI≤0.5)	(Syn) (Synergy (Syn) was defined as an FICI≤0.5)	| (Syn) (Synergy (Syn) was defined as an FICI≤0.5)	MIC (MRSA ATCC49476; +8 mg/L DHA): 1.5e-05 µg/mL (≈ 3.8e-05 µM); combination effect (MRSA ATCC33591; +8 mg/L DHA): | (Syn) (Synergy (Syn) was defined as an FICI≤0.5); MIC (MRSA ATCC33591; +8 mg/L DHA): 6.1e-05 µg/mL (≈ 0.000155 µM); MBC (MRSA USA300; +8 mg/L DHA): 0.00098 µg/mL; MIC (MRSA USA300; +8 mg/L DHA): 0.00049 µg/mL; MIC (MRSA USA300; [6]): 0.00049 µg/mL; synergy of the amide compound with DHA (in words) (MRSA USA300; MIC after adding DHA is less than ¼ of its original MIC, 8 mg/L DHA): synergistic antibacterial activity with DHA; combination effect (MRSA USA300; [6]): (Syn) (Synergy (Syn) was defined as an FICI≤0.5); MBC (MRSA USA300; [7]): 2 µg/mL; MIC (MRSA USA300; [8]): 0.0625 µg/mL; MIC (MRSA USA300; [9]): 0.0625 µg/mL; combination effect (S. aureus ATCC29213): (Syn) (Synergy (Syn) was defined as an FICI≤0.5); MIC (S. aureus ATCC29213; ATCC29213, +8 mg/L DHA): 0.0039 µg/mL (≈ 0.00988 µM); combination effect (MRSA ATCC33592; +8 mg/L DHA): (Syn) (Synergy (Syn) was defined as an FICI≤0.5); MIC (MRSA ATCC33592; +8 mg/L DHA): 0.00098 µg/mL (≈ 0.00248 µM); combination effect (VRSA SJC1200; +8 mg/L DHA): (Syn) (Synergy (Syn) was defined as an FICI≤0.5); MIC (VRSA SJC1200; +8 mg/L DHA): 0.00012 µg/mL (≈ 0.000304 µM)
> 64	> 64	4 (≈ 8.61 µM)	32 (≈ 68.8 µM)	> 64	> 64	–	64 (≈ 138 µM)	> 64	> 64	0.5 (≈ 1.08 µM)	0.5 (≈ 1.08 µM)	0.5 (≈ 1.08 µM)	0.5 (≈ 1.08 µM)	CNC(=O)c1cc(Oc2ccc(NC(=O)Nc3ccc(Cl)c(C(F)(F)F)c3)cc2)ccn1 [Sorafenib]	–	(Syn) (Synergy (Syn) was defined as an FICI≤0.5)	(Syn) (Synergy (Syn) was defined as an FICI≤0.5)	(Syn) (Synergy (Syn) was defined as an FICI≤0.5)	(Syn) (Synergy (Syn) was defined as an FICI≤0.5)	(Syn) (Synergy (Syn) was defined as an FICI≤0.5)	MIC (MRSA ATCC49476; +8 mg/L DHA): 0.5 µg/mL (≈ 1.08 µM); combination effect (MRSA ATCC33591; +8 mg/L DHA): (Syn) (Synergy (Syn) was defined as an FICI≤0.5); MIC (MRSA ATCC33591; +8 mg/L DHA): 0.5 µg/mL (≈ 1.08 µM); MBC (MRSA USA300; +8 mg/L DHA): 1 µg/mL; MIC (MRSA USA300; +8 mg/L DHA): 0.5 µg/mL; MIC (MRSA USA300; [6]): 0.5 µg/mL; combination effect (MRSA USA300; [6]): (Syn) (Synergy (Syn) was defined as an FICI≤0.5); MBC (MRSA USA300; [7]): > 64 µg/mL; MIC (MRSA USA300; [8]): > 64 µg/mL; MIC (MRSA USA300; [9]): >64 µg/mL; combination effect (S. aureus ATCC29213): (Syn) (Synergy (Syn) was defined as an FICI≤0.5); MIC (S. aureus ATCC29213; ATCC29213, +8 mg/L DHA): 0.5 µg/mL (≈ 1.08 µM); combination effect (MRSA ATCC33592; +8 mg/L DHA): (Syn) (Synergy (Syn) was defined as an FICI≤0.5); MIC (MRSA ATCC33592; +8 mg/L DHA): 0.5 µg/mL (≈ 1.08 µM); combination effect (VRSA SJC1200; +8 mg/L DHA): (Syn) (Synergy (Syn) was defined as an FICI≤0.5); MIC (VRSA SJC1200; +8 mg/L DHA): 0.5 µg/mL (≈ 1.08 µM)
–	–	–	–	–	–	–	–	–	–	–	–	–	–	CN[C@H](CC(C)C)C(=O)N[C@H]1C(=O)N[C@@H](CC(N)=O)C(=O)N[C@H]2C(=O)N[C@H]3C(=O)N[C@H](C(=O)N[C@H](C(=O)O)c4cc(O)cc(O)c4-c4cc3ccc4O)[C@H](O)c3ccc(c(Cl)c3)Oc3cc2cc(c3O[C@@H]2O[C@H](CO)[C@@H](O)[C@H](O)[C@H]2O[C@H]2C[C@](C)(N)[C@H](O)[C@H](C)O2)Oc2ccc(cc2Cl)[C@H]1O [vancomycin, reference compound]	–	–	–	–	–	–	killing of persister cells (in words) [2]: resistant to the killing activity; killing of persister cells (in words) [3]: resistant to the killing activity
–	–	–	–	–	–	256	–	–	–	–	–	–	–	CC/C=C\C/C=C\C/C=C\CCCCCCCC(=O)O [α- linolenic acid, α-linolenic acid]	1020	–	–	–	–	–	–
